# What was measured:
# Solubility in water = type: physicochemical
# Description: The hydrophoby or the solubility in water of a compound may be measured by standard methods and, especially, by UV/visible spectroscopy.
# [1] = Complexing constant Log K in methanol at 25° C.; type: binding
# Experimental: K is the complexing constant of a CEM and a […] cation in methanol, at 25° C., which is measured according to the standard method of isothermal calorimetric titration.
# [2] = Liquid-liquid extraction of mono-salt saline solution; conditions: for Extraction rate at room temperature (RT), BaCl2 / Extraction rate at room temperature (RT), CaCl2 / Extraction rate at room temperature (RT), KCl / Extraction rate at room temperature (RT), LiCl / Extraction rate at room temperature (RT), MgCl2 / Extraction rate at room temperature (RT), NaCl / Extraction rate at room temperature (RT), SrCl2: 0.1M CEM + 3.52M ASM2 in CH2Cl2, initial salt 0.1 mol/L, Org./Water = 1, molar %
# Description: The extracting composition is obtained by solubilizing an amount of CEM and ASM in the selected fluidizing agent, dichloromethane CH2Cl2, dichlorobenzene or dichlorotoluene or any other fluidizing agent able to well solubilize the mixture CEM/ASM in order to obtain the searched final concentrations after solubilizing CEMs and ASMs in a minimum of 3 milliliters of fluidizing agent. If the selected fluidizing agent is also an ASM compound, so the selected ASM volume is at least 3 milliliters. The given concentrations of ASM2 and ASM9 are related to the added fluidizing agent volume and the concentrations of CEM are related to the added fluidizing agent+ASM volume. The extracting organic composition is then lightly heated so as to promote the solubilization of the organic compounds by means of a heat gun (temperature around 50 to 60° C.) for a few seconds (10 to 30 seconds) until a clear solution is obtained. The composition is thus left for 24 hours at room temperature so as to make sure that the obtained formulation is stable.
# These sealed formulations are then orbitally stirred at 500 revolutions/minute for two hours after adding an equivalent volume of water which was distilled twice so as to allow a water saturation of the whole formulation and a pH control at the inlet and at the outlet (pH close to 7, or at least maintained after contact with the saturation water).
# 3 mL of the prepared extracting organic composition are then taken from the lower phase of the decanted diphasic mixture and transferred to a vial containing 3 mL of the water containing the one or more considered chloride salts (NaCl or others), then the vial is sealed and orbitally stirred (at 500 revolutions per minute) for 2 hours at room temperature (RT), that is to say between 20 and 25° C.
# A verification is made to make sure that droplets in the range of 1-2 mm are really present during these stirrings in order to be sure that an equilibrium in the distribution of the considered chloride salt (NaCl or other) is achieved between both liquid phases at the end of stirring. The aspect of the organic and aqueous phases is clear and colorless or slightly turbid.
# Once the 2-hour stirring is carried out, the stirring is stopped and the whole is left for decantation for about 10 minutes, at least until both phases are completely separated, at the temperature of the assay. Then, the upper aqueous phase is taken then stirred and diluted in order to analyze its salinity by a ion chromatography (a Metrohm™ device including a cation analyzing column and an anion analyzing column suitable for the ions and for the concentration of the salts which are searched for). Likewise, the chloride salt (NaCl or other) initial aqueous solution is also analyzed by this ion chromatography to determine its cation and chloride molar relative concentration before the extraction. All the extractions and analyses were duplicated.
# The considered extracting composition comprises 0.1 mol/L of CEM1 and 3.52 mol/L of ASM2 in dichloromethane CH2Cl2, which was obtained as described above. The initial concentration of the considered salt in water, whether it is LiCl, NaCl, KCl, MgCl2, CaCl2, SrCl2 or BaCl2, is 0.1 mol/L.
# After carrying out these 7 specific extractions (duplicated) of salts, the amounts of extracted cations in relative molar percentage before and after extraction at room temperature and at water/extracting formulation iso-volume are indicated in table I: […]
# [3] = mono-salt solutions, 0.1M CEM + 3.52M ASM2 in CH2Cl2, RT
structure (smiles),measurement,setting,value
"OCc1cccc(C(F)(F)F)c1 [ASM1, 3-(trifluoromethyl)benzyl alcohol]",Solubility in water,Solubility in water,32000 µM
OCc1cc(C(F)(F)F)c(C(F)(F)F)c(C(F)(F)F)c1 [ASM4],Solubility in water,Solubility in water,390 µM
"CCN(CC)C(=O)COc1c2cc(C(C)(C)C)cc1Cc1cc(C(C)(C)C)cc(c1OCC(=O)N(CC)CC)Cc1cc(C(C)(C)C)cc(c1OCC(=O)N(CC)CC)Cc1cc(C(C)(C)C)cc(c1OCC(=O)N(CC)CC)Cc1cc(C(C)(C)C)cc(c1OCC(=O)N(CC)CC)Cc1cc(C(C)(C)C)cc(c1OCC(=O)N(CC)CC)Cc1cc(C(C)(C)C)cc(c1OCC(=O)N(CC)CC)Cc1cc(C(C)(C)C)cc(c1OCC(=O)N(CC)CC)C2 [CEM 9, 4-tert-butyl-Calix[8]arene octakis(N,N-diethylacetamide)]","Log K(Ca^++, MeOH, 25° C.)",[1],7.2
"OCc1cc(C(F)(F)F)cc(C(F)(F)F)c1 [ASM2, [3,5-Bis(Trifluoromethyl)phenyl]methanol]",Solubility in water,Solubility in water,2290 µM
"CCOC(=O)COc1c2cc(C(C)(C)C)cc1Cc1cc(C(C)(C)C)cc(c1OCC(=O)OCC)Cc1cc(C(C)(C)C)cc(c1OCC(=O)OCC)Cc1cc(C(C)(C)C)cc(c1OCC(=O)OCC)Cc1cc(C(C)(C)C)cc(c1OCC(=O)OCC)C2 [CEM 11, 4-tert-Butylcalix[5]arene-pentaacetic acid pentaethyl ester]","Log K(Cs^+, MeOH, 25° C.)",[1],5.5
same,"Log K(K^+, MeOH, 25° C.)",[1],5.3
same,"Log K(Li^+, MeOH, 25° C.)",[1],1.0
same,"Log K(Na^+, MeOH, 25° C.)",[1],4.4
same,"Log K(Rb^+, MeOH, 25° C.)",[1],5.6
"CCOC(=O)COc1c2cc(C(C)(C)C)cc1Cc1cc(C(C)(C)C)cc(c1OCC(=O)OCC)Cc1cc(C(C)(C)C)cc(c1OCC(=O)OCC)Cc1cc(C(C)(C)C)cc(c1OCC(=O)OCC)C2 [CEM10, 4-tert-Butylcalix[4]arene-tetraacetic acid tetraethyl ester]","Log K(Cs^+, MeOH, 25° C.)",[1],2.7
same,"Log K(K^+, MeOH, 25° C.)",[1],2.4
same,"Log K(Li^+, MeOH, 25° C.)",[1],2.6
same,"Log K(Na^+, MeOH, 25° C.)",[1],5.0
same,"Log K(Rb^+, MeOH, 25° C.)",[1],3.1
same,"Extraction rate at room temperature (RT), BaCl2",[2],3.7%
same,"Extraction rate at room temperature (RT), CaCl2",[2],4.7%
same,"Extraction rate at room temperature (RT), KCl",[2],14.4%
same,"Extraction rate at room temperature (RT), LiCl",[2],5.5%
same,"Extraction rate at room temperature (RT), MgCl2",[2],5.1%
same,"Extraction rate at room temperature (RT), NaCl",[2],66.2%
same,"Extraction rate at room temperature (RT), SrCl2",[2],5.9%
same,Na/Ca selectivity,[2]; [3],14
OCc1cc(C(F)(F)C(F)(F)C(F)(F)C(F)(F)F)cc(C(F)(F)C(F)(F)C(F)(F)C(F)(F)F)c1 [ASM3],Solubility in water,Solubility in water,0.5 µM
CCCC(O)c1cc(C(F)(F)F)cc(C(F)(F)F)c1 (stereo not shown) [ASM7],Solubility in water,Solubility in water,480 µM
CC(O)c1cccc(C(F)(F)C(F)(F)C(F)(F)F)c1 (stereo not shown) [ASM5],Solubility in water,Solubility in water,420 µM
"CC(C)(C)c1cc2c(OCC(=O)N3CCCC3)c(c1)Cc1cc(C(C)(C)C)cc(c1OCC(=O)N1CCCC1)Cc1cc(C(C)(C)C)cc(c1OCC(=O)N1CCCC1)Cc1cc(C(C)(C)C)cc(c1OCC(=O)N1CCCC1)C2 [CEM 4, 4-tert-butyl-Calix[4]arene tetrakis(N-pyrrolidinylacetamide)]","Log K(Ba^++, MeOH, 25° C.)",[1],6.8
same,"Log K(Ca^++, MeOH, 25° C.)",[1],7.8
same,"Log K(Cs^+, MeOH, 25° C.)",[1],1.0
same,"Log K(K^+, MeOH, 25° C.)",[1],5.4
same,"Log K(Li^+, MeOH, 25° C.)",[1],3.0
same,"Log K(Mg^++, MeOH, 25° C.)",[1],1.2
same,"Log K(Na^+, MeOH, 25° C.)",[1],7.2
same,"Log K(Rb^+, MeOH, 25° C.)",[1],3.0
same,"Log K(Sr^++, MeOH, 25° C.)",[1],8.1
"CCOC(=O)COc1c2cc(C(C)(C)C)cc1Cc1cc(C(C)(C)C)cc(c1OCC(=O)OCC)Cc1cc(C(C)(C)C)cc(c1OCC(=O)OCC)Cc1cc(C(C)(C)C)cc(c1OCC(=O)OCC)Cc1cc(C(C)(C)C)cc(c1OCC(=O)OCC)Cc1cc(C(C)(C)C)cc(c1OCC(=O)OCC)C2 [CEM12, 4-tert-Butylcalix[6]arene-hexaacetic acid hexaethyl ester]","Extraction rate at room temperature (RT), BaCl2",[2],11.8%
same,"Extraction rate at room temperature (RT), CaCl2",[2],5.5%
same,"Extraction rate at room temperature (RT), KCl",[2],55.7%
same,"Extraction rate at room temperature (RT), LiCl",[2],9.0%
same,"Extraction rate at room temperature (RT), MgCl2",[2],5.4%
same,"Extraction rate at room temperature (RT), NaCl",[2],29.6%
same,"Extraction rate at room temperature (RT), SrCl2",[2],4.6%
same,K/Ca selectivity,[2]; [3],10.2
OC(c1cccc(C(F)(F)F)c1)c1cccc(C(F)(F)F)c1 [ASM8],Solubility in water,Solubility in water,70 µM
